Data set [1] deals with COLO 205 cells. Kind of data set: MTT cell viability assay, COLO 205. Type of data set: cell-based. The conditions noted are these: Homo sapiens, COLO205, MTT, 24 h. The method, then: (§1) The human colon cancer cell lines COLO 205, HCT116 and HT29 were purchased from the American Type Culture Collection (Rockville, Md.). Cell lines were grown in RPMI1640 supplemented with 10% heat inactivated fetal bovine serum (GIBCO BRL, Grand Island, N.Y.), 100 units/mL of penicillin, 100 μg/mL of streptomycin), 2 mM L-glutamine (GIBCO BRL, Grand Island, N.Y.), and were kept at 37° C. in a humidified 5% CO2 incubator. Pterostilbene and 3-HPT were dissolved in dimethyl sulfoxide (DMSO, as final concentration of 0.05%). Cells were treated with 0.05% DMSO as vehicle control.
(§2) Cell viability was assayed by 3(4,5-dimethylthiazol-2-yl)-2,5-diphenyltetrazolium bromide (MTT). Briefly. COLO 205, HCT116 and HT29 cells were plated at a density of 2×10^2 cells/mL into 96 well plates. After overnight growth, cells were treated with a series of concentrations of pterostilbene or 3-hydroxypterostilbene for 24 h. The final concentrations of DMSO in the culture medium were <0.05%. At the end of treatment, 0.2% MTT was added and cells were incubated for a further 4 h. Cell viability was determined by scanning with an ELISA reader with a 570 nm filter.
For orientation: Tetrazolium dyes change colour on reduction, which living cells bring about.

For the next data set, the system named is HCT-116 cells. Kind of data set: MTT cell viability assay, HCT116. In kind it is cell-based. The conditions noted are these: Homo sapiens; HCT-116, MTT, 24 h. Here is the method: as §1, §2
Data set [2] relates to COLO 205 cells. Kind of data set: Mitochondrial membrane potential by DiOC6 flow cytometry. Type of data set: cell-based, human. The following applies: COLO 205, 50 μM, 15 min; shifted from 224. Here is the method:
(§3) For mitochondrial membrane potential and ROS production, COLO 205 cells were treated as described under Example III for 15 min, and then DiOC6 [3,3′-dihexyloxacarbocyanine iodide] (40 nM) or DCFHDA [2′,7′-dichlorodihydrofluorescein diacetate] (20 μM) was added to the medium for a further 30 min at 37° C. After washing with PBS, the fluorescence intensity was determined by FAC Scan cytometry. The DiOC6 fluorescence intensity shifted to the left from 224 to 117 and 75 in pterostilbene and 3-HPT induced apoptotic COLO 205 cells, respectively. […] The role of ROS in the induction of apoptosis is well recognized. […] The imbalance of ROS concentrations could play an important role as an early mediator in 3-HPT induced apoptosis.
Background: In flow cytometry, cells or beads pass a laser one at a time.

The subject of data set [3] is COLO 205 cells. Kind of data set: ROS production by DCFHDA flow cytometry. Type of data set: cell-based, human. The conditions noted are these: COLO 205, 50 μM, 15 min; from 114. The method, then: as §3
For data set [4], the system named is COLO 205 cells. Kind of data set: Autophagy (acidic vesicular organelles) by acridine orange staining. In kind it is cell-based, human. The conditions noted are these: 24 h. The method, then:
Autophagy induction in COLO 205 cells treated with 3-HPT and pterostilbene was detected by Acridine Orange (AO) staining. After 24 h treatment, COLO 205 cells were washed with phosphate buffered saline (PBS), suspended in PBS and stained with 1 μg/mL AO of 20 min. Photographs were obtained with a fluorescence microscope (Axioscop, Carl Zeiss, Thomwood, N.Y.) equipped with a mercury 100 W lamp, 490 nm Bandpass blue excitation filters, a 500 nm dichroic mirror and a 515 nm long pass barrier filter. For quantification of AVOs by flow cytometry, cells were treated as described under EXAMPLE II and stained with AO for 15 min and were analyzed by FACScan laser flow cytometer and CellQuest software.

For data set [5], the system named is COLO 205 xenograft tumors. Kind of data set: COLO 205 xenograft model. Type of data set: in vivo. The method, then:
Male Balb/c nude mice at 3-4 weeks old (weighing 16-18 g) were obtained from the BioLASCO Experimental Animal Center (BioLASCO, Taipei, Taiwan). All animals were maintained in pathogen free sterile isolators and in a controlled atmosphere (25±1° C. at 50% relative humidity) and with a 12 h light-12 h dark cycle according to institutional guidelines. Animals were fed with standard AIN76 diet and all food, water, caging, and bedding were sterilized prior to use. Animals had free access to food and water at all times. Food cups were replenished with fresh diet every day. All animal experimental protocol used in this study was approved by Institutional Animal Care and Use Committee of the National Kaohsiung Marine University (IACUC, NKMU, #099AAA902, Validity dates: Jan. 1, 2009 Jul. 31, 2012). After 1 week of acclimation, colon cancer COLO 205 cells (5×10^6) in 0.2 mL PBS were injected subcutaneously between the scapulae of each nude mouse. After transplantation, tumor size was measured using calipers, and the tumor volume was estimated according to the following formula: tumor volume […]=L×W2/2, where L is the length and W is the width. Once tumors reached a mean size of […], mice were randomly divided into three groups (6 animals/group). Mice were i.p. injection with pterostilbene or 3-hydroxypterostilbene (10 mg/kg/d, respectively) for 15 days, while control animals were received injection of corn oil. The diet intake and body weight of each animal was monitored every day. The tumor volume was assessed and recorded every 5 days using caliper measurements. After 15 days, the mice were sacrificed by […] and the liver, kidneys, spleen and solid tumors were excised immediately and weighed. Average tumor volume and tumor weight of each group were represent the mean±standard deviation (SD). Average tumor volumes were recorded during the treatment and average tumor weights were measured at the end of experiment. Six samples were analyzed in each group, and values represent the mean±SD. *P<0.05 and **P<0.01, compared with control group. #P<0.05, compared with pterostilbene treated group. The tumor tissues were cut into several portion for western blot analysis or stored at −80° C. […] Furthermore, in mice receiving these treatment regimens, no gross signs of toxicity were observed during visible inspections of general appearance and microscopic examinations of individual organs. • 2.

The subject of data set [6] is PC-3 cells. Kind of data set: Flow cytometry analysis of subG1 cell population in PC-3 cells. Type of data set: cell-based, human. The conditions noted are these: PC-3, 0-20 μM, 48 hr. Here is the method: PC-3 cells were cultured in serum-free RPMI containing 0, 2.5, 5, 10, or 20 μM of 3-HPT for 48 hr followed by flow cytometric analysis.
Data set [7] has as its system PC-3 cells. Kind of data set: DNA fragmentation by agarose gel electrophoresis. In kind it is cell-based, human. The conditions noted are these: PC-3, 0-20 μM, 48 hr, 2.0% agarose gel.
The test system of data set [8] is PC-3 cells. Kind of data set: Mitochondrial membrane potential by DiOC6 flow cytometry in PC-3 cells. The conditions noted are these: PC-3, 10 and 20 μM, 48 hr. In kind it is cell-based, human. The method, then:
As a measure of down-stream check points in the mammalian apoptotic pathways, the potential of 3-HPT to cause mitochondrial dysfunction and activation of the caspase pathways was further evaluated. PC-3 cells were cultured in serum-free RPMI containing 0, 2.5, 5, 10, or 20 μM of 3-HPT for 48 hr, respectively. Then, cells were stained with DiOC6 and analyzed by flow cytometry.

The structures appear in SMILES notation.

The IC50 is the concentration needed to halve the response being measured. A low value points to higher potency. Take `COc1cc(/C=C/c2ccc(O)c(O)c2)cc(OC)c1` [3-hydroxypterostilbene, 3,4-dihydroxy-3′,5′-dimethoxy-trans-stilbene]: the figures for the IC50 in the data set with COLO 205 cells [1] and with HCT-116 cells were 9 ± 0.2 µM and 40.2 ± 0.6 µM, respectively. In addition, the “DiOC6 fluorescence intensity (mitochondrial membrane potential)” value in the data set on COLO 205 cells [2] is recorded as 75. Further, the “mean DCFHDA fluorescence intensity (ROS)” value in the data set with COLO 205 cells [3] is 38. In addition, the “appearance of AVO (fluorescence microscopy)” value in the data set with COLO 205 cells [4] (COLO 205, 50 μM) is “marked appearance of AVO than pterostilbene”. For the same molecule, the “red fluorescence of cells with AVOs (flow cytometry)” value in the data set on COLO 205 cells [4] (COLO 205, 25 and 50 μM) was “significantly increased after treatment with 3-HPT in a dose dependent manner”. In addition, the “protein levels of COX2, MMP9, VEGF, cyclin D1, and procaspase 3 in tumors” value in [5] (10 mg/kg, Western blot, compared to the pterostilbene group) is listed as “markedly decreased”. The “side effects or toxicity (body and organ weights, gross signs)” value in [5] (10 mg/kg/d i.p., 15 days, nude mice) is recorded as “no noticeable side effects or toxicity”. Further, the tumor volume result in data set [5] (10 mg/kg/d i.p., after 15 days) is recorded as “significantly inhibited in comparison with the pterostilbene treated mice”. For the same molecule, the tumor weight result in data set [5] (10 mg/kg/d i.p., end of experiment) is on record as “strongly inhibited”. Besides, the “percentage of apoptotic cells (subG1)” value in the data set with PC-3 cells [6] is recorded as “increasing percentage of apoptotic cells over increasing concentrations”. Also, in the data set on PC-3 cells [7], the DNA fragmentation entry is listed as “indicated apoptotic cells death”. Besides, the mitochondrial membrane potential entry with PC-3 cells [8] is “significant reduction”.

The values are drawn from US20160058712A1, “3-HYDROXYPTEROSTILBENE AND THERAPEUTIC APPLICATIONS THEREOF” (priority 2014, published 2016).
